Values joined by “and” are separate entries in the source; they are usually repeats but may differ in a detail not shown here. Equal entries are not always repeated. Where two headings read alike, the source gives them in different places.
How the values were obtained:
[1] = tested on: HFGR-I P. falciparum (elevated proline homeostasis and PfcProRS^L482H); assay: P. falciparum ABS growth assay, SYBR Green, 72 h, HFGR-I parasites; format: cell-based, Plasmodium falciparum; settings: HFGR-I
How it was run: (§1)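 Dd2-derived erythrocytic-stage parasites at 1% parasitemia and 1% hematocrit in RPMI + 0.5% Albumax were exposed to compounds in triplicate dose-response. Controls were 10 μM dihydroartemisinin (kill) and no-compound wells (growth). Growth was read by SYBR Green 1 fluorescence after 72 h and used to derive EC50.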

HsProRS = HsProRS (Homo sapiens, UniProt P07814); assay: TR-FRET ligand displacement assay with tracer MAT379 (CoraFluor-1-Halo and anti-His6 antibody formats); format: binding; design: made in house; host or cells: E. coli SoluBL-21; settings: for normalized TR-FRET signal (dose-response replicates): SI Fig 17a
PfcProRS = target: T1, PfcProRS (Plasmodium falciparum, UniProt Q8I5R7); format: binding; settings: for Normalized response, dose-response replicates (SI Fig 14): replicates 1-3, listed as MAT345 (30)
T1 construct: made in house; host or cells: E. coli SoluBL-21

[2] = tested on: halofuginone-induced P. falciparum (elevated proline homeostasis); assay: P. falciparum ABS growth assay, SYBR Green, 72 h, halofuginone-induced parasites; format: cell-based, Plasmodium falciparum; settings: for parasite growth, dose-response point: Halofuginone-Induced (HFG-Induced)
How it was run: as §1

P. falciparum Dd2-2D4 = assay: P. falciparum asexual blood stage (ABS) growth assay, SYBR Green, 72 h, wild-type parasites; format: cell-based, Plasmodium falciparum; settings: Plasmodium falciparum, DD2; SI Fig 16b; values on -log scale; read-out: ABS - Dd2-2D4 (converted)
[3] = Log[inhibitor] (M) -5.000, series r16-r27

HsProRS, sequence (P07814 996-1512): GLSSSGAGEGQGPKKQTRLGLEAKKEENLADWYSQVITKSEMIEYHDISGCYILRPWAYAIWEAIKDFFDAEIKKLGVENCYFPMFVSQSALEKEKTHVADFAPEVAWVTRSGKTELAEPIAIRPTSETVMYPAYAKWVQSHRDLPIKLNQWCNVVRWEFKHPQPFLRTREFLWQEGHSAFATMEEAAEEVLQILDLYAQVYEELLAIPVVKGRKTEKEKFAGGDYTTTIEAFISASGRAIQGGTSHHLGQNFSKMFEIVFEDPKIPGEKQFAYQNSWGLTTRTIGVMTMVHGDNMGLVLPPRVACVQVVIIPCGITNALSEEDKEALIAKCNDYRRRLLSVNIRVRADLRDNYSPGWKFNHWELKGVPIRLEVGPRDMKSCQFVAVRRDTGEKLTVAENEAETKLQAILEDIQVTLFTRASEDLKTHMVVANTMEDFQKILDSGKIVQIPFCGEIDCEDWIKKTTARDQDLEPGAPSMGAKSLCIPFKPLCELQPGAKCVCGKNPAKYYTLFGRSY
T1 sequence (Q8I5R7 249-746): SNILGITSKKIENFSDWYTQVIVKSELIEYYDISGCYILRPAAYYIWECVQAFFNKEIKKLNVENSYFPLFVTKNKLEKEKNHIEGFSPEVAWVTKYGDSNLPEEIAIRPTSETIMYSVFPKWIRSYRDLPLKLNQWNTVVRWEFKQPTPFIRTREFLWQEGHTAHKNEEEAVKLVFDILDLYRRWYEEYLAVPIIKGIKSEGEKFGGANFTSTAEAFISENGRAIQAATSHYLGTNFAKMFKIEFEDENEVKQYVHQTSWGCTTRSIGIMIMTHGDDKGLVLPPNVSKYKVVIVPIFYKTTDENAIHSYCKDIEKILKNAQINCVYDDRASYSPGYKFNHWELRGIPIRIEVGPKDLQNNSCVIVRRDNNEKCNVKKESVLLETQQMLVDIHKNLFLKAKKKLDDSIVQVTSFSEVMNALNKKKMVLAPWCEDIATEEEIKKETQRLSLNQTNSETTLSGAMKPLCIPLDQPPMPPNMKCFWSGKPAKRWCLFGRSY

O=C(NC1Cc2ccccc2C1)c1nccnc1NC(=O)N1CCC(CNC(=O)[C@@H]2CCCN2)CC1 [MAT345]
parasite growth, dose-response point [1, 3]: 34 and 31 and 27 | parasite growth, dose-response point ([1]; Log[inhibitor] (M) -5.408): 80 and 82 and 78 | parasite growth, dose-response point ([1]; Log[inhibitor] (M) -5.816): 93 and 92 and 94 | parasite growth, dose-response point ([1]; Log[inhibitor] (M) -6.222): 97 and 95 | parasite growth, dose-response point ([1]; Log[inhibitor] (M) -6.638): 101 and 98 and 100 | parasite growth, dose-response point ([1]; Log[inhibitor] (M) -7.046): 98 and 100 | parasite growth, dose-response point ([1]; Log[inhibitor] (M) -7.450): 89 and 95 and 94 | parasite growth, dose-response point ([1]; Log[inhibitor] (M) -7.854): 93 and 91 and 94 | parasite growth, dose-response point ([1]; Log[inhibitor] (M) -8.260): 90 and 93 and 96 | parasite growth, dose-response point ([1]; Log[inhibitor] (M) -8.699): 97 and 94 and 92 | parasite growth, dose-response point ([1]; Log[inhibitor] (M) -9.000): 97 and 96 and 95 | parasite growth, dose-response point ([1]; Log[inhibitor] (M) -9.488): 95 and 102 and 96 | Kd (HsProRS; HsProRS (KD [nM]) + proline, 100 μM proline, 250 nM MAT379): 282 nM | Kd (HsProRS; HsProRS - best Kd, SI Fig 16a, values on -log scale): 140 nM | normalised signal, dose-response point (Fig 4d) (HsProRS; Log[inhibitor] (M) -5.642): 3.24E-02 and 2.70E-02 and 2.05E-02 | normalised signal, dose-response point (Fig 4d) (HsProRS; Log[inhibitor] (M) -6.244): 1.89E-01 and 2.26E-01 and 2.85E-01 | normalised signal, dose-response point (Fig 4d) (HsProRS; Log[inhibitor] (M) -6.555): 3.68E-01 and 3.01E-01 and 3.10E-01 | normalised signal, dose-response point (Fig 4d) (HsProRS; Log[inhibitor] (M) -6.837): 6.02E-01 and 6.04E-01 and 4.91E-01 | normalised signal, dose-response point (Fig 4d) (HsProRS; Log[inhibitor] (M) -7.149): 6.76E-01 and 6.99E-01 and 6.39E-01 | normalised signal, dose-response point (Fig 4d) (HsProRS; Log[inhibitor] (M) -7.447): 8.48E-01 and 8.28E-01 and 9.00E-01 | normalised signal, dose-response point (Fig 4d) (HsProRS; Log[inhibitor] (M) -7.755): 9.14E-01 and 8.69E-01 and 1.05E+00 | normalised signal, dose-response point (Fig 4d) (HsProRS; Log[inhibitor] (M) -8.041): 9.90E-01 and 1.01E+00 and 9.87E-01 | normalised signal, dose-response point (Fig 4d) (HsProRS; Log[inhibitor] (M) -8.372): 1.02E+00 and 1.03E+00 and 9.36E-01 | normalised signal, dose-response point (Fig 4d) (HsProRS; Log[inhibitor] (M) -8.615): 9.70E-01 and 1.01E+00 and 1.11E+00 | normalised signal, dose-response point (Fig 4d) (HsProRS; Log[inhibitor] (M) -8.916): 9.07E-01 and 1.05E+00 and 9.01E-01 | normalised signal, dose-response point (Fig 4d) (HsProRS; Log[inhibitor] (M) -9.217): 9.78E-01 and 9.88E-01 and 9.92E-01 | normalized TR-FRET signal (dose-response replicates) (HsProRS; Log[inhibitor] (M) -5.041): 4.56E-02 and 1.07E-02 and 1.68E-02 | normalized TR-FRET signal (dose-response replicates) (HsProRS; Log[inhibitor] (M) -5.342): 5.17E-02 and 5.07E-02 and 8.15E-02 | normalized TR-FRET signal (dose-response replicates) (HsProRS; Log[inhibitor] (M) -5.642): 9.59E-02 and 6.70E-02 and 9.33E-02 | normalized TR-FRET signal (dose-response replicates) (HsProRS; Log[inhibitor] (M) -5.943): 1.49E-01 and 1.16E-01 and 1.17E-01 | normalized TR-FRET signal (dose-response replicates) (HsProRS; Log[inhibitor] (M) -6.244): 2.09E-01 and 2.42E-01 and 2.50E-01 | normalized TR-FRET signal (dose-response replicates) (HsProRS; Log[inhibitor] (M) -6.555): 3.66E-01 and 3.52E-01 and 3.76E-01 | normalized TR-FRET signal (dose-response replicates) (HsProRS; Log[inhibitor] (M) -6.837): 5.21E-01 and 5.37E-01 and 4.85E-01 | normalized TR-FRET signal (dose-response replicates) (HsProRS; Log[inhibitor] (M) -7.149): 7.07E-01 and 6.82E-01 and 6.73E-01 | normalized TR-FRET signal (dose-response replicates) (HsProRS; Log[inhibitor] (M) -7.447): 7.81E-01 and 8.42E-01 and 8.20E-01 | normalized TR-FRET signal (dose-response replicates) (HsProRS; Log[inhibitor] (M) -7.755): 9.07E-01 and 9.27E-01 and 8.91E-01 | normalized TR-FRET signal (dose-response replicates) (HsProRS; Log[inhibitor] (M) -8.041): 9.57E-01 and 9.29E-01 and 9.81E-01 | normalized TR-FRET signal (dose-response replicates) (HsProRS; Log[inhibitor] (M) -8.372): 9.20E-01 and 9.69E-01 and 9.64E-01 | normalized TR-FRET signal (dose-response replicates) (HsProRS; Log[inhibitor] (M) -8.615): 9.77E-01 and 1.00E+00 and 1.02E+00 | normalized TR-FRET signal (dose-response replicates) (HsProRS; Log[inhibitor] (M) -8.916): 9.89E-01 and 9.48E-01 and 9.78E-01 | normalized TR-FRET signal (dose-response replicates) (HsProRS; Log[inhibitor] (M) -9.217): 1.04E+00 (2×) and 1.05E+00 | Normalized response, dose-response replicates (SI Fig 14) (PfcProRS; Log[inhibitor] (M) -5.041): 4.37E-03 and 8.51E-02 and 8.45E-02 | Normalized response, dose-response replicates (SI Fig 14) (PfcProRS; Log[inhibitor] (M) -5.342): 1.11E-01 and 8.97E-02 and 2.09E-01 | Normalized response, dose-response replicates (SI Fig 14) (PfcProRS; Log[inhibitor] (M) -5.642): 2.13E-01 and 1.76E-01 and 2.03E-01 | Normalized response, dose-response replicates (SI Fig 14) (PfcProRS; Log[inhibitor] (M) -5.943): 2.11E-01 and 3.53E-01 and 2.89E-01 | Normalized response, dose-response replicates (SI Fig 14) (PfcProRS; Log[inhibitor] (M) -6.244): 5.69E-01 and 4.73E-01 and 4.91E-01 | Normalized response, dose-response replicates (SI Fig 14) (PfcProRS; Log[inhibitor] (M) -6.555): 6.49E-01 and 6.64E-01 and 6.15E-01 | Normalized response, dose-response replicates (SI Fig 14) (PfcProRS; Log[inhibitor] (M) -6.837): 7.67E-01 and 7.12E-01 and 8.75E-01 | Normalized response, dose-response replicates (SI Fig 14) (PfcProRS; Log[inhibitor] (M) -7.149): 8.93E-01 and 9.71E-01 and 9.69E-01 | Normalized response, dose-response replicates (SI Fig 14) (PfcProRS; Log[inhibitor] (M) -7.447): 1.04E+00 and 1.05E+00 and 9.75E-01 | Normalized response, dose-response replicates (SI Fig 14) (PfcProRS; Log[inhibitor] (M) -7.755): 9.28E-01 and 9.14E-01 and 8.72E-01 | Normalized response, dose-response replicates (SI Fig 14) (PfcProRS; Log[inhibitor] (M) -8.041): 1.06E+00 and 9.79E-01 and 1.02E+00 | Normalized response, dose-response replicates (SI Fig 14) (PfcProRS; Log[inhibitor] (M) -8.372): 9.49E-01 and 9.57E-01 and 1.06E+00 | Normalized response, dose-response replicates (SI Fig 14) (PfcProRS; Log[inhibitor] (M) -8.615): 1.07E+00 and 9.05E-01 and 1.02E+00 | Normalized response, dose-response replicates (SI Fig 14) (PfcProRS; Log[inhibitor] (M) -8.916): 1.03E+00 and 9.82E-01 and 1.08E+00 | Normalized response, dose-response replicates (SI Fig 14) (PfcProRS; Log[inhibitor] (M) -9.217): 9.85E-01 and 1.06E+00 and 9.97E-01 | PfcProRS -- best Kd (PfcProRS; SI Fig 16a, values on -log scale): 7.445 | parasite growth, dose-response point [2, 3]: 31 and 33 | parasite growth, dose-response point ([2]; Log[inhibitor] (M) -5.408): 83 and 82 and 78 | parasite growth, dose-response point ([2]; Log[inhibitor] (M) -5.816): 97 and 93 and 100 | parasite growth, dose-response point ([2]; Log[inhibitor] (M) -6.222): 102 and 100 | parasite growth, dose-response point ([2]; Log[inhibitor] (M) -6.638): 103 and 100 and 98 | parasite growth, dose-response point ([2]; Log[inhibitor] (M) -7.046): 102 and 103 | parasite growth, dose-response point ([2]; Log[inhibitor] (M) -7.450): 91 and 97 | parasite growth, dose-response point ([2]; Log[inhibitor] (M) -7.854): 96 and 99 | parasite growth, dose-response point ([2]; Log[inhibitor] (M) -8.260): 97 and 101 | parasite growth, dose-response point ([2]; Log[inhibitor] (M) -8.699): 95 and 97 and 96 | parasite growth, dose-response point ([2]; Log[inhibitor] (M) -9.000): 98 and 96 | parasite growth, dose-response point ([2]; Log[inhibitor] (M) -9.488): 97 and 99 | fold decreased activity in halofuginone-induced and HFGR-I parasites ([2]; vs wild-type Dd2-2D4): 20-to-40 fold | EC50 (P. falciparum Dd2-2D4): 249 nM
